The text below walks through data of PubChem BioAssay (NCI).

Among the test systems are OVCAR-4 ovarian; ACHN renal; UACC-62 melanoma; OVCAR-3 ovarian; SNB-19 CNS; NCI-H23 lung; MOLT-4 leukemia; SR leukemia; SNB-75 CNS; UACC-257 melanoma.
Holding throughout (test): inhibition of tumour cell growth, NCI panel, 48 h

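48-hour exposure; five concentrations; linearly interpolated endpoints. GI50 marks 50% less growth. The concentration for full growth arrest is given as TGI.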

Turning to `C=C1SC(=Nc2ccccc2Cl)N(C(=O)c2sc3ccccc3c2Cl)C12CCCCC2`, the GI50 with OVCAR-4 ovarian was 7.75 µM; in the assay with ACHN renal, 4.89 µM; in the assay with UACC-62 melanoma, 22.8 µM; in the assay on OVCAR-3 ovarian, 6.56 µM; in the assay on SNB-19 CNS, 7.56 µM; in the assay with NCI-H23 lung, 4.43 µM. For the same molecule, the GI50 was 4.72 µM in the assay on MOLT-4 leukemia, 8.54 µM with SR leukemia, 14 µM in the assay on SNB-75 CNS and 23.6 µM in the assay on UACC-257 melanoma. The TGI with OVCAR-4 ovarian is > 100 µM; in the assay on ACHN renal it was > 100 µM; in the assay with UACC-62 melanoma, > 100 µM; in the assay on OVCAR-3 ovarian, 93.4 µM; with SNB-19 CNS, > 100 µM; in the assay with NCI-H23 lung, > 100 µM. For the same molecule, the TGI with MOLT-4 leukemia, in the assay on SR leukemia, with SNB-75 CNS and with UACC-257 melanoma was > 100 µM throughout.
Take `C#CC1(O)CCC2[C@@H]3CCc4cc(Oc5nc(F)nc(-c6c7ccccc7c(SCC)n6CCC)n5)ccc4C3CC[C@@]21C` (stereo partly specified): the TGI in the assay with OVCAR-4 ovarian was > 100 µM; in the assay with ACHN renal, > 100 µM; in the assay with UACC-62 melanoma, > 100 µM; with OVCAR-3 ovarian, > 100 µM; in the assay with NCI-H23 lung it was 63.9 µM; in the assay on MOLT-4 leukemia, > 100 µM. In addition, the TGI with SR leukemia and with UACC-257 melanoma was > 100 µM in each case.
As for `Cc1nc2ccccn2c1NC(=O)NNC(=S)Nc1ccc(F)cc1`, the GI50 is > 100 µM in the assay with OVCAR-4 ovarian; > 100 µM in the assay with ACHN renal; > 100 µM with UACC-62 melanoma; > 100 µM in the assay on OVCAR-3 ovarian; > 100 µM in the assay on SNB-19 CNS; 20.4 µM with MOLT-4 leukemia. The GI50 in the assay with SR leukemia was 19.5 µM; in the assay on SNB-75 CNS it was > 100 µM; in the assay on UACC-257 melanoma, > 100 µM. The TGI in the assay on OVCAR-4 ovarian, in the assay on ACHN renal, in the assay with UACC-62 melanoma, with OVCAR-3 ovarian, with SNB-19 CNS and in the assay on MOLT-4 leukemia was > 100 µM in each case. Besides, the TGI in the assay on SR leukemia, with SNB-75 CNS and in the assay with UACC-257 melanoma was > 100 µM each time.
As for `C=C1C(=O)O[C@H]2[C@H]1CC/C(COC(=O)CCCc1c[nH]c3ccccc13)=C\CC[C@@]1(C)O[C@@H]21`, the GI50 is 1.66 µM with OVCAR-4 ovarian; 1.84 µM in the assay with UACC-62 melanoma; 1.53 µM in the assay on OVCAR-3 ovarian; 2.59 µM in the assay on SNB-19 CNS; 1.72 µM in the assay on NCI-H23 lung; 1.53 µM in the assay with MOLT-4 leukemia. The GI50 is 1.73 µM in the assay on SR leukemia, 12.6 µM with SNB-75 CNS and 2.03 µM in the assay with UACC-257 melanoma. In addition, the TGI stood at 3.28 µM in the assay on OVCAR-4 ovarian; 3.79 µM in the assay with UACC-62 melanoma; 3.02 µM in the assay on OVCAR-3 ovarian; 7.87 µM with SNB-19 CNS; 3.47 µM in the assay on NCI-H23 lung; 4.94 µM in the assay with MOLT-4 leukemia. The TGI was determined as 6.37 µM with SR leukemia, 26.6 µM in the assay on SNB-75 CNS and 3.96 µM with UACC-257 melanoma.
In the case of `CCOC(=O)C1=C(C)N(NC(N)=O)C2(N)N(NC(N)=O)C(C)=C(C(=O)OCC)C12C(=O)OCC` (stereo unspecified), the TGI in the assay with OVCAR-4 ovarian, in the assay on ACHN renal, in the assay on UACC-62 melanoma, in the assay on OVCAR-3 ovarian, in the assay on SNB-19 CNS and in the assay with MOLT-4 leukemia was > 100 µM throughout. The TGI with SR leukemia, with SNB-75 CNS and in the assay on UACC-257 melanoma was > 100 µM throughout.
With `C=CCN1/C(=C2\SC(=S)N(c3ccc(C)cc3)C2=O)Sc2c1ncn(C)c2=O`, the TGI in the assay with OVCAR-4 ovarian, with ACHN renal, with UACC-62 melanoma, in the assay on SNB-19 CNS, with NCI-H23 lung and with MOLT-4 leukemia was > 100 µM in each case. Moreover, the TGI in the assay on SR leukemia, in the assay on SNB-75 CNS and in the assay with UACC-257 melanoma was > 100 µM in each case.
Consider `COc1ccc2c(c1)NC1(O)c3ccccc3C(=O)C21O` (stereo unspecified), for which the TGI in the assay with ACHN renal, in the assay with UACC-62 melanoma, in the assay on OVCAR-3 ovarian, in the assay on SNB-19 CNS, in the assay on NCI-H23 lung and with MOLT-4 leukemia was > 100 µM each time. In addition, the TGI in the assay with SR leukemia, in the assay on SNB-75 CNS and with UACC-257 melanoma was > 100 µM in each case.
Turning to `COC(=O)/C(C#N)=C(\N)C(Cl)(Cl)Cl`, the TGI is 8.56 µM with OVCAR-4 ovarian; 6.6 µM with ACHN renal; 2.86 µM in the assay with UACC-62 melanoma; 12.9 µM with OVCAR-3 ovarian; > 100 µM in the assay with SNB-19 CNS; 3.2 µM in the assay on MOLT-4 leukemia. The values for the TGI in the assay with SR leukemia, with SNB-75 CNS and in the assay on UACC-257 melanoma were 5.37 µM, 16 µM and 12.6 µM, respectively.
Consider `CCCCc1c2cnccc2c(CCCC)c2c1[nH]c1ccccc12`, for which the TGI in the assay with OVCAR-4 ovarian was 29.8 µM; with ACHN renal it was 30.6 µM; in the assay on UACC-62 melanoma it was 23.7 µM; with OVCAR-3 ovarian it was 19.6 µM; in the assay on SNB-19 CNS, 22.1 µM; in the assay with NCI-H23 lung it was 36.2 µM. The TGI was determined as 23.7 µM in the assay with MOLT-4 leukemia, 23.6 µM in the assay on SNB-75 CNS and 36 µM with UACC-257 melanoma.
In the case of `OC12c3ccccc3C1CCCCCCCCCC21OCCO1` (stereo unspecified), the TGI in the assay on OVCAR-4 ovarian, in the assay on ACHN renal, in the assay on UACC-62 melanoma, with OVCAR-3 ovarian, with SNB-19 CNS and with NCI-H23 lung was > 100 µM throughout. For the same molecule, the TGI with MOLT-4 leukemia, in the assay on SNB-75 CNS and in the assay with UACC-257 melanoma was > 100 µM throughout.
Take `Nc1nc(SCc2ccccc2Cl)cc(C(=O)O)n1`: the TGI with OVCAR-4 ovarian is > 100 µM; in the assay with ACHN renal it was > 100 µM; in the assay with UACC-62 melanoma, > 100 µM; with OVCAR-3 ovarian, 89.2 µM; in the assay with SNB-19 CNS it was > 100 µM; in the assay on NCI-H23 lung, > 100 µM. The TGI in the assay with SR leukemia, in the assay with SNB-75 CNS and in the assay with UACC-257 melanoma was > 100 µM in each case.
With `C=CCC1(C(=O)OC(C)(C)C)C(OC)=C(C(=O)OC(C)(C)C)C2C1C(C(=O)OC(C)(C)C)=C(OC)C2(CC=C)C(=O)OC(C)(C)C` (stereo unspecified), the TGI in the assay on ACHN renal, in the assay with UACC-62 melanoma, with OVCAR-3 ovarian, in the assay with SNB-19 CNS, in the assay with NCI-H23 lung and in the assay with MOLT-4 leukemia was > 100 µM throughout. Moreover, the TGI in the assay with SR leukemia, in the assay on SNB-75 CNS and in the assay with UACC-257 melanoma was > 100 µM each time.
